Data: patent US20160102363A1, “METHODS AND COMPOSITIONS FOR PREDICTING THERAPEUTIC EFFICACY OF KINASE INHIBITORS IN PATIENTS WITH MYELODYSPLASTIC SYNDROME OR RELATED DISORDERS” (ONCONOVA THERAPEUTICS, INC., priority 2013, published 2016)

Test system: MDS patients
Test: Clinical hematological response of MDS patients treated with Rigosertib
Assay type: in vivo, human
Settings: number of patients of 32 MDS patients
Source text: As used herein, “response” is defined by standard clinical criteria, importantly including amelioration of transfusion-dependent anemia, which is a major hallmark of myelodysplastic syndromes (MDS).
This study sought to identify DNA methylation markers that can predict the therapeutic response to a different, and an even more widely pertinent, class of anti-cancer drugs, namely broad-specificity tyrosine kinase inhibitors (TKI's) or a broad specificity kinase inhibitors. As used herein, “response” is defined by standard clinical criteria, importantly including amelioration of transfusion-dependent anemia, which is a major hallmark of myelodysplastic syndromes (MDS).
Pre-therapy bone marrow mononuclear cells from 32 patients were analyzed using the Illumina 450K methylation array platform.
In summary, seven (7) of 32 MDS patients had complete response or CR (Transfusion independence (TI)+increase in hemoglobin (Hb)>2 g/dL), ten (10) had partial response or PR (TI without Hb increase) and fifteen (15) had no response or NR. […] Bisulfite sequencing (which allows quantification of multiple consecutive CpGs in an amplicon) of several differentially methylated loci confirmed the Illumina 450K data.

COc1cc(OC)c(/C=C/S(=O)(=O)Cc2ccc(OC)c(NCC(=O)[O-])c2)c(OC)c1.[Na+] [Rigosertib]
complete response or CR (Transfusion independence (TI)+increase in hemoglobin (Hb)>2 g/dL): 7 | no response or NR: 15 | partial response or PR (TI without Hb increase): 10
